Experimental data from PMC9813109, “Phase I dose-escalation study of milademetan in patients with relapsed or refractory acute myeloid leukemia” (International Journal of Hematology, 2022).
“Also recorded” adds a separate entry of the source.

How the values were obtained:
[1] = system: patients with solid tumors or lymphomas; conditions: QD 21/28-day schedule, Japanese phase I; cited from earlier work
patients with R/R AML = system: patients with R/R AML
Protocol: This phase I, open-label, and dose-escalation study conducted at eight centers in Japan recruited patients with R/R AML. Four fixed-dose milademetan schedules were planned (Supplementary Fig. 1A). Increases in the milademetan dose were guided by the modified continual reassessment method (mCRM), with a planned maximum dose of 160 mg/day (Supplementary Fig. 1B). Each cohort (90, 120, and 160 mg) consisted of three to six patients. The first cycle was defined as the dose-limiting toxicity (DLT) evaluation period where patients required hospitalization. The number of treatment cycles was not specified, and the study treatment for each patient was continued unless the discontinuation criteria were met.
In this study, we only assessed the patients with schedule A‒milademetan was administered once daily on days 1–14 followed by a 14-day rest in a 28-day cycle.
Relative dose intensity (in percentage) was calculated as a proportion of dose intensity/planned dose intensity (proportion of dose administered/total treatment duration). Safety assessments were completed by documenting the AEs, ECOG PS, laboratory data, body weight, vital signs, and the results of 12 lead ECGs. Serious adverse events (SAEs) were defined as any AEs that caused mortality, were life-threatening, required hospitalization or prolonged existing hospitalization, caused disability or incapacity, or represented other medical conditions. Patients were followed up until the AEs resolved.
Patients were evaluated for DLT during the first 28 days of cycle 1, defined as any nonhematological AEs of grade ≥ 3 unless attributed to the primary disease course, complications, or concomitant medications. Nonhematological toxicities classified as DLTs were grade 4 AST/ALT, grade 3 AST/ALT lasting ≥ 3 days, grade 3 AST/ALT with grade ≥ 2 total bilirubin, or an inability to complete at least 75% of the prescribed milademetan doses in cycle 1 (28 days) due to grade ≥ 2 events. Hematological toxicities classified as DLTs included failure to recover neutrophil and platelet counts to ≥ 500/mm^3 and ≥ 20,000/mm^3, respectively, that delayed the initiation of cycle 2 for > 2 weeks. DLT evaluation findings were used to determine the MTD. AEs that were not classified as DLTs included grade 3 fatigue of < 3 days; grade 3 nausea or vomiting that resolved to grade ≤ 2 within 2 days after antiemetic therapy; grade 3 diarrheas that resolved to grade ≤ 2 within 2 days after antidiarrheal therapy; and alopecia, febrile neutropenia, and transient laboratory abnormalities either without symptoms or requiring continuous treatment. Examples of non-DLT AEs were grade ≥ 3 alkaline phosphatases, uric acid, amylase, lipase, or hyponatremia that resolved within 72 h of onset. The Common Terminology Criteria for Adverse Events (version 5.0) were used for grading, and each AE was coded using the Medical Dictionary for Regulatory Activities (version 21.1). Criteria for drug dose reduction or interruption are described in Supplementary material.
All patients who received at least one milademetan dose were included in the safety analysis set. […] The efficacy analysis set included all patients who received at least one milademetan dose and underwent efficacy evaluation at least once after treatment initiation. […] The biomarker analysis set included all patients who received at least one milademetan dose, whose specimens were collected for biomarker studies, and who had available measurement data. Following the first cycle, doses for subsequent cohorts were guided by an mCRM based on a Bayesian logistic regression model incorporating the escalation with the overdose control principle, clinical evaluation of the toxicological profile, and pharmacokinetics and pharmacodynamics information.

CC1(C)CCC2(CC1)N[C@@H](C(=O)N[C@@H]1CC[C@@H](C(N)=O)OC1)[C@H](c1ccnc(Cl)c1F)[C@]21C(=O)Nc2cc(Cl)ccc21 [milademetan]
Maximum tolerated dose (MTD) [1]: 90 mg
Deaths or AEs leading to treatment discontinuation (patients with R/R AML; 14 patients): No deaths or AEs leading to treatment discontinuation occurred; also recorded: No death or AEs that caused treatment discontinuation were noted
Skin infection, All grades (patients with R/R AML; Total (n = 14)): 1 (7.1) n (%)
Skin infection, Grade ≥ 3 (patients with R/R AML; Total (n = 14)): 1 (7.1) n (%)
Anemia, All grades (patients with R/R AML; human, in vivo): 5 (35.7) n (%)
Anemia, Grade ≥ 3 (patients with R/R AML; human, in vivo): 5 (35.7) n (%)
Anemia, patients with TEAE regardless of causality (patients with R/R AML; human, in vivo): 35.7%
Decreased appetite, All grades (patients with R/R AML; human, in vivo): 9 (64.3) n (%)
Decreased appetite, Grade ≥ 3 (patients with R/R AML; human, in vivo): 1 (7.1) n (%)
Decreased appetite, patients with TEAE regardless of causality (patients with R/R AML; human, in vivo): 64.3%
Diarrhea, All grades (patients with R/R AML; human, in vivo): 3 (21.4) n (%)
Diarrhea, Grade ≥ 3 (patients with R/R AML; human, in vivo): 1 (7.1) n (%)
Dry mouth, All grades (patients with R/R AML; human, in vivo): 3 (21.4) n (%)
Dry mouth, Grade ≥ 3 (patients with R/R AML; human, in vivo): 0 (0.0) n (%)
Febrile neutropenia, All grades (patients with R/R AML; human, in vivo): 7 (50.0) n (%)
Febrile neutropenia, Grade ≥ 3 (patients with R/R AML; human, in vivo): 7 (50.0) n (%)
Febrile neutropenia, patients with TEAE regardless of causality (patients with R/R AML; human, in vivo): 50%
Hypokalemia, All grades (patients with R/R AML; human, in vivo): 4 (28.6) n (%)
Hypokalemia, Grade ≥ 3 (patients with R/R AML; human, in vivo): 1 (7.1) n (%)
Leukopenia, All grades (patients with R/R AML; human, in vivo): 1 (7.1) n (%)
Leukopenia, Grade ≥ 3 (patients with R/R AML; human, in vivo): 1 (7.1) n (%)
Malaise, All grades (patients with R/R AML; human, in vivo): 3 (21.4) n (%)
Malaise, Grade ≥ 3 (patients with R/R AML; human, in vivo): 0 (0.0) n (%)
Nausea, All grades (patients with R/R AML; human, in vivo): 6 (42.9) n (%)
Nausea, Grade ≥ 3 (patients with R/R AML; human, in vivo): 0 (0.0) n (%)
Nausea, patients with TEAE regardless of causality (patients with R/R AML; human, in vivo): 42.9%
Neutropenia, All grades (patients with R/R AML; human, in vivo): 2 (14.3) n (%)
Neutropenia, Grade ≥ 3 (patients with R/R AML; human, in vivo): 2 (14.3) n (%)
Neutrophil count decreased, All grades (patients with R/R AML; human, in vivo): 1 (7.1) n (%)
Neutrophil count decreased, Grade ≥ 3 (patients with R/R AML; human, in vivo): 1 (7.1) n (%)
Number of patients with SAEs (patients with R/R AML; human, in vivo): 4 patients
Patients with TEAEs leading to study treatment interruption (patients with R/R AML; human, in vivo): 21.4%
Patients with a TEAE that required dose reduction (acute kidney injury) (patients with R/R AML; human, in vivo): 7.1%
Patients with grade ≥ 3 TEAEs (patients with R/R AML; human, in vivo): 71.4%
Pharyngitis, All grades (patients with R/R AML; human, in vivo): 1 (7.1) n (%)
Pharyngitis, Grade ≥ 3 (patients with R/R AML; human, in vivo): 1 (7.1) n (%)
Platelet count decreased, All grades (patients with R/R AML; human, in vivo): 3 (21.4) n (%)
Platelet count decreased, Grade ≥ 3 (patients with R/R AML; human, in vivo): 3 (21.4) n (%)
Pneumonia, All grades (patients with R/R AML; human, in vivo): 4 (28.6) n (%)
Pneumonia, Grade ≥ 3 (patients with R/R AML; human, in vivo): 3 (21.4) n (%)
Serious TEAE (patients with R/R AML; human, in vivo): 4 (28.6) n (%)
Stomatitis, All grades (patients with R/R AML; human, in vivo): 3 (21.4) n (%)
Stomatitis, Grade ≥ 3 (patients with R/R AML; human, in vivo): 0 (0.0) n (%)
TEAE (patients with R/R AML; human, in vivo): 13 (92.9) n (%)
TEAE by CTCAE grade ≤ 2 (patients with R/R AML; human, in vivo): 3 (21.4) n (%)
TEAE by CTCAE grade ≥ 3 (patients with R/R AML; human, in vivo): 10 (71.4) n (%)
TEAE leading to treatment interruption: decreased appetite (patients with R/R AML; human, in vivo): 1 n
TEAE leading to treatment interruption: decreased neutrophil count (patients with R/R AML; human, in vivo): 1 n
TEAE leading to treatment interruption: decreased platelet count (patients with R/R AML; human, in vivo): 1 n
TEAE leading to treatment interruption: diarrhea (patients with R/R AML; human, in vivo): 1 n
TEAE leading to treatment interruption: dysgeusia (patients with R/R AML; human, in vivo): 1 n
TEAE leading to treatment interruption: febrile neutropenia (patients with R/R AML; human, in vivo): 2 n
Thrombocytopenia, All grades (patients with R/R AML; human, in vivo): 4 (28.6) n (%)
Thrombocytopenia, Grade ≥ 3 (patients with R/R AML; human, in vivo): 4 (28.6) n (%)
Tolerability (patients with R/R AML; human, in vivo): well tolerated up to 160 mg
Vomiting, All grades (patients with R/R AML; human, in vivo): 4 (28.6) n (%)
Vomiting, Grade ≥ 3 (patients with R/R AML; human, in vivo): 0 (0.0) n (%)
White blood cell count decreased, All grades (patients with R/R AML; human, in vivo): 1 (7.1) n (%)
White blood cell count decreased, Grade ≥ 3 (patients with R/R AML; human, in vivo): 1 (7.1) n (%)
Recommended dose (patients with R/R AML; human, in vivo, 28 days): 160 mg
Dose dependence of frequency of TEAEs that were grade ≥ 3, serious, or led to dose reduction/treatment interruption (patients with R/R AML; in vivo): No dose-dependent increase was observed
Grade 4 TEAE: decreased neutrophil count (patients with R/R AML; in vivo): one
Grade 4 TEAE: decreased platelet count (patients with R/R AML; in vivo): three
Grade 4 TEAE: neutropenia (patients with R/R AML; in vivo): two
Grade 4 TEAE: thrombocytopenia (patients with R/R AML; in vivo): two
Number of reported SAEs (serious TEAEs) (patients with R/R AML; in vivo): Five
Other laboratory parameters (hematology, blood chemistry, urinalysis), vital signs, ECG parameters (patients with R/R AML; in vivo): No clinically relevant changes from baseline or consistent trends were observed
SAE: febrile neutropenia (patients with R/R AML; in vivo): two
SAE: pneumonia (patients with R/R AML; in vivo): three
Maximum tolerated dose (MTD) (patients with R/R AML; up to 160 mg, QD 14/28 schedule): not reached
